The values that follow come from article PMC6435570, “Zafirlukast Is a Dual Modulator of Human Soluble Epoxide Hydrolase and Peroxisome Proliferator-Activated Receptor γ” (Frontiers in Pharmacology, 2019).

Data set [1] concerns the target T1, PPARγ-LBD / CBP-derived peptide (Homo sapiens, UniProt P37231).
T1 construct: 12 nM recombinant PPARγ-LBD fused to N-terminal GFP as FRET acceptor
T1 sequence (P37231 238-503 limits assumed): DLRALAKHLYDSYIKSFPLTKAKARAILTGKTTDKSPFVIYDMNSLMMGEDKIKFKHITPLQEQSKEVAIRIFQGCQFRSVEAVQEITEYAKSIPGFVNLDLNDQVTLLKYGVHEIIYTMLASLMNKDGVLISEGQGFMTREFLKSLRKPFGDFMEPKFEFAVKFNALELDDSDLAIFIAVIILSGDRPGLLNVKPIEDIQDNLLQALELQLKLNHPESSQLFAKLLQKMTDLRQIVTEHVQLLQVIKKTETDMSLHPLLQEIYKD
Briefly: PPARγ coactivator (CBP) recruitment assay, HT-FRET. The class given is biochemical. Conditions: for Induction of CBP recruitment by the compound itself: absence of rosiglitazone. The text has this:
Recruitment of coactivator-derived peptides to the PPARγ-LBD was studied by homogeneous time-resolved fluorescence resonance energy transfer (HT-FRET). Terbium cryptate as streptavidin conjugate (Cisbio assays, France) was used as FRET donor. Peptides derived from the coactivator cyclic AMP response element-binding protein (CREB)-binding protein (CBP) [biotin-[…]] encompassing the coactivator consensus motif LxxLL and N-terminal biotin for stable coupling to streptavidin were purchased from Eurogentec GmbH (Cologne, Germany). Solutions containing 12 nM recombinant PPARγ-LBD fused to N-terminal GFP as FRET acceptor and 12 nM FRET donor complex with the CBP-derived peptide as well as 1% DMSO with test compound at varying concentrations or DMSO alone were prepared in HEPES buffer [25 mM HEPES pH 7.5 adjusted with KOH, 150 mM KF, 5% (w/v) glycerol, 0.1% (w/v) CHAPS, 5 mM DTT]. After 2 h incubation at RT, the fluorescence intensities (FI) at 520 nm (acceptor) and 620 nm (donor reference) after excitation at 340 nm were recorded on a Tecan Infinite F200 (Tecan Group Ltd., Männedorf, Switzerland). FI520nm was divided by FI620nm and multiplied with 10,000 giving a dimensionless HTRF signal. Recruitment of coactivator-derived peptides to the PPARγ-LBD was validated with increasing concentrations of rosiglitazone. Recruitment of CBP was referenced to recruitment in response to 1 μM rosiglitazone (∼EC80) and reported as relative coactivator recruitment.
We induced this post-translational modification by short-term treatment of the differentiated cells with the cytokine TNFα, generating a pro-inflammatory milieu. […] For this, we used an assay system in which the recruitment of the fluorescence-tagged PPARγ coactivator CBP to the PPARγ-LBD was assessed by time-resolved FRET technique in presence and absence of rosiglitazone.

In another data set the target is T2, sEH (HEP-G2) (Homo sapiens, UniProt P34913).
T2 construct: 1 μg of total cell homogenate diluted in 100 μl of PBS; endogenous in cells; host or cells: HEP-G2
T2 sequence (P34913 1-555): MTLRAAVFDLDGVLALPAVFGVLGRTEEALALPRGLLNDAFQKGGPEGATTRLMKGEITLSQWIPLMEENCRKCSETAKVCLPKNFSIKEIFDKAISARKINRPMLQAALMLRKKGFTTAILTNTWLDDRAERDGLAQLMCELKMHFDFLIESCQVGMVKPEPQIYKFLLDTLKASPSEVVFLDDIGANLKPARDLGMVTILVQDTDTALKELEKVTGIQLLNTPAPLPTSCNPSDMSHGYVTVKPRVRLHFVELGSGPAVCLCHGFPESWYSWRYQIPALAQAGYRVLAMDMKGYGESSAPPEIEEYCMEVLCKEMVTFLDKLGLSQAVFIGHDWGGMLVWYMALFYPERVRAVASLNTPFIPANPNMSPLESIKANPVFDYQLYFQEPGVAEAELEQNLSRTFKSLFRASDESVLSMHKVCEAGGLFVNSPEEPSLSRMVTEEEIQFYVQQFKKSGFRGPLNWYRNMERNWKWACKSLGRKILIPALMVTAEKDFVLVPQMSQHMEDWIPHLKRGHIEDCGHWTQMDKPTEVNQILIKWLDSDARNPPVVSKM
Briefly: sEH activity in HEP-G2 cell lysates (14(15)-EET-d11 to DHET-d11, LC-MS/MS). The class given is biochemical. As to conditions: HEP-G2 cell homogenate, (±)14(15)-EET-d11 substrate, DHET formation by LC-MS/MS.

On the set-up of data set [2]: method as in Brocks et al., 1996; Knorr et al., 2001; Karonen et al., 2012. As to conditions: ref Brocks et al., 1996; Knorr et al., 2001; Karonen et al., 2012; cited from earlier work.
The test system of a further data set is CysLT1R. As to conditions: Table 2 comparison column; no method, no reference given; cited from earlier work.
Another data set concerns the target T3, recombinant human sEH (Homo sapiens, UniProt P34913).
T3 sequence (P34913 1-555): T2 sequence (P34913 1-555)
Nature of the data set: Recombinant sEH activity (PHOME fluorescence assay). As to conditions: PHOME 50 μM, 30 min preincubation at RT, read-out: sEH rec. IC50. The class given is biochemical.

Details of data set [3]: method as in Brocks et al., 1996; Knorr et al., 2001; Karonen et al., 2012. As to conditions: single oral dose of 20 mg; ref Brocks et al., 1996; Knorr et al., 2001; Karonen et al., 2012; cited from earlier work.

SMILES strings stand for the structures. “And” between values parts separate entries of the source, which are not always exact repeats. Equal entries are not always repeated.

Description for recombinant human sEH: For determination of IC50 values of recombinant human sEH a 96-well fluorescence-based assay system was used as described before ([Blöcher et al., 2016a]). In brief, non-fluorescent PHOME (3 phenylcyano-(6-methoxy-2-naphthalenyl)methyl ester 2-oxiraneacetic acid, Cayman Chemicals, Ann Arbor, MI, United States) was used as substrate, which is hydrolyzed by sEH to the fluorescent 6-methoxynaphthaldehyde ([Rau et al., 2006]). The formation of the fluorescent product was measured (λem = 330 nm, λex = 465 nm) by an Infinite F200 Pro plate reader (Tecan Group Ltd., Männedorf, Switzerland). For that purpose, 2 μg recombinant human sEH in 100 μl bis-Tris buffer (pH 7, 0.1 mg/mL BSA, 0.01% Triton-X 100) was applied per well. This protein solution was then incubated with different concentrations of the test compounds for 30 min at RT. After this, 10 μL of the substrate were added (final concentration 50 μM). The formation of 6-methoxynaphthaldehyde was monitored for 30 min. All concentrations were tested in triplicate wells.
Description for sEH (HEP-G2): Quantification of cellular sEH metabolic activity was performed as described by [Zha et al. (2014)]. For this, HEP-G2 cells were harvested, washed twice with PBS and sonicated in PBS for disruption of cell integrity. Then, 1 μg of total cell homogenate diluted in 100 μl of PBS containing 0.1 mg/ml BSA was incubated with the compounds or vehicle for 15 min at 37°C. After this, 25 ng (±)14(15)-EET-d11 (Cayman Chemical, Ann Arbor, MI, United States) were added per sample and the incubation was continued for additional 10 min at 37°C. A blank was performed using PBS (containing 0,1 mg/mL BSA). The reactions were stopped by adding 100 μL of ice cold methanol. After centrifugation (2000 rpm, 4°C, 5 min), supernatants were analyzed by LC-MS/MS and the amounts of (±)14(15)-EET-d11 and the corresponding (±)14(15)-DHET-d11 were determined.
14(15)-EET-d11 and 14(15)-DHET-d11 content of the extracted samples were analyzed employing liquid chromatography tandem mass spectroscopy (LC-MS/MS). The LC/MS-MS system comprised an API 5500 QTrap (Sciex, Darmstadt, Germany), equipped with a Turbo-V-source operating in negative ESI mode, an Agilent 1200 binary HPLC pump and degasser (Agilent, Waldbronn, Germany) and an HTC Pal autosampler (Chromtech, Idstein, Germany) fitted with a 25 μL LEAP syringe (Axel Semrau GmbH, Sprockhövel, Germany). High purity nitrogen for the mass spectrometer was produced by a NGM 22-LC/MS nitrogen generator (cmc Instruments, Eschborn, Germany). All substances were obtained from Cayman Chemical, Ann Arbor, MI, United States. Stock solutions with 2,500 ng/mL of both analytes were prepared in methanol. Working standards were obtained by further dilution with a concentration range of 0.1–250 ng/mL for 14(15)-EET-d11 and 14(15)-DHET-d11. Sample extraction was performed with liquid–liquid-extraction. Therefore, 150 μL of matrix homogenates were gently mixed with 20 μL of internal standard [14(15)-EET and 14(15)-DHET all with a concentration of 100 ng/ml in methanol], and were extracted twice with 600 μL of ethyl acetate. Samples for standard curve and quality control were prepared similarly, instead of 150 μL of matrix homogenates, 150 μL PBS were added. Further 20 μL methanol, 20 μL working standard and 20 μL internal standard were added. The organic phase was removed at a temperature of 45°C under a gentle stream of nitrogen. The residues were reconstituted with 50 μL of methanol/water/(50:50, v/v), centrifuged for 2 min at 10,000 g and then transferred to glass vials (Macherey-Nagel, Düren, Germany) prior to injection into the LC-MS/MS system. For the chromatographic separation a Gemini NX C18 column and pre-column were used (150 mm × 2 mm i.d., 5 μm particle size and 110 Å pore size from Phenomenex, Aschaffenburg, Germany). A linear gradient was employed at a flow rate of 0.5 mL/min mobile phase with a total run time of 17.5 min. Mobile phase was A water/ammonia (100:0.05, v/v) and B acetonitrile/ammonia (100:0.05, v/v). The gradient started from 85% A to 10% within 12 min. This was held for 1 min at 10% A. Within 0.5 min the mobile phase shifted back to 85% A and was held for 3.5 min to equilibrate the column for the next sample. The injection volume of samples was 20 μL. Quantification was performed with Analyst Software V 1.5.1 (Sciex, Darmstadt, Germany) employing the internal standard method (isotope- dilution mass spectrometry). Ratios of analyte peak area and internal standard area (y-axis) were plotted against concentration (x-axis) and calibration curves were calculated by least square regression with 1/concentration^2 weighting.

Turning to `CC(C)(O)c1ccccc1CC[C@@H](SCC1(CC(=O)O)CC1)c1cccc(/C=C/c2ccc3ccc(Cl)cc3n2)c1` [Montelukast, montelukast], in data set [1], the “Induction of CBP recruitment by the compound itself” value is “did not induce CBP recruitment itself in concentrations up to 20 μM”. The “Antagonism of rosiglitazone induced CBP recruitment” value in data set [1] (presence of rosiglitazone (1 μM)) is on record as “weakly antagonized the rosiglitazone induced CBP recruitment in concentrations above 3 μM”. The IC50 (in general, the midpoint of a concentration-inhibition curve) on sEH (HEP-G2) was 1900 nM and 1950 nM.
`COc1cc(C(=O)NS(=O)(=O)c2ccccc2C)ccc1Cc1cn(C)c2ccc(NC(=O)OC3CCCC3)cc12` [Zafirlukast, zafirlukast]: in data set [2], the Plasma protein binding entry is reported as “High”. Further, the “Induction of CBP recruitment by the compound itself” value in data set [1] is listed as “did not induce CBP recruitment itself”. Also, the IC50 is 4700 nM in data set [1] (rosiglitazone 1 μM, after 2 h, read-out: IC50 for antagonism of rosiglitazone induced CBP recruitment); 5 nM with CysLT1R; 800 nM and 820 nM at sEH (HEP-G2); 1970 ± 80 nM at recombinant human sEH. The Peak serum level result in data set [3] is recorded as “about 1 μM”.
